# Experimental data as given in PubChem BioAssay (NCI).
#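 Tested at 5 concentrations; 48 h exposure; 96-well plates; endpoints linearly interpolated, else capped at highest concentration. The concentration for 50% growth inhibition is given as GI50. TGI marks complete inhibition of growth.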
# Assays:
# Assay in all cases: inhibition of tumour cell growth, NCI panel, 48 h
# UACC-257 melanoma = tested on: UACC-257 melanoma
# DLD-1 colon = tested on: DLD-1 colon
# SR leukemia = tested on: SR leukemia
# NCI-H226 lung = tested on: NCI-H226 lung
# SN12C renal = tested on: SN12C renal
# ACHN renal = tested on: ACHN renal
# OVCAR-3 ovarian = tested on: OVCAR-3 ovarian
# UACC-62 melanoma = tested on: UACC-62 melanoma
# M14 melanoma = tested on: M14 melanoma
# SF-268 CNS = tested on: SF-268 CNS
# TK-10 renal = tested on: TK-10 renal
# DMS 114 small cell lung = tested on: DMS 114 small cell lung
# 786-0 renal = tested on: 786-0 renal
# NCI-H23 lung = tested on: NCI-H23 lung
# LOX IMVI melanoma = tested on: LOX IMVI melanoma
# KM20L2 colon = tested on: KM20L2 colon
# K-562 leukemia = tested on: K-562 leukemia
# IGROV1 ovarian = tested on: IGROV1 ovarian
# SF-295 CNS = tested on: SF-295 CNS
# EKVX NSCLC = tested on: EKVX NSCLC
# RXF-631 renal = tested on: RXF-631 renal
# OVCAR-5 ovarian = tested on: OVCAR-5 ovarian
# KM12 colon = tested on: KM12 colon
# SNB-78 CNS = tested on: SNB-78 CNS
# HOP-62 NSCLC = tested on: HOP-62 NSCLC
# HL-60(TB) leukemia = tested on: HL-60(TB) leukemia
# RXF 393 renal = tested on: RXF 393 renal
# HCT-15 colon = tested on: HCT-15 colon
# HOP-92 NSCLC = tested on: HOP-92 NSCLC
# NCI-H460 lung = tested on: NCI-H460 lung
# HCC-2998 colon = tested on: HCC-2998 colon
# SNB-75 CNS = tested on: SNB-75 CNS
# MOLT-4 leukemia = tested on: MOLT-4 leukemia
# OVCAR-8 ovarian = tested on: OVCAR-8 ovarian
# OVCAR-4 ovarian = tested on: OVCAR-4 ovarian
# SK-MEL-5 melanoma = tested on: SK-MEL-5 melanoma
# U251 CNS = tested on: U251 CNS
# MALME-3M melanoma = tested on: MALME-3M melanoma
# UO-31 renal = tested on: UO-31 renal
# CCRF-CEM leukemia = tested on: CCRF-CEM leukemia
# SF-539 CNS = tested on: SF-539 CNS
# HOP-18 NSCLC = tested on: HOP-18 NSCLC
# COLO 205 colon = tested on: COLO 205 colon
# NCI-H522 lung = tested on: NCI-H522 lung
# DMS 273 small cell lung = tested on: DMS 273 small cell lung
# HT29 colon = tested on: HT29 colon
# HCT-116 colon = tested on: HCT-116 colon
# A549 NSCLC = tested on: A549 NSCLC
# SW-620 colon = tested on: SW-620 colon
# LXFL 529 NSCLC = tested on: LXFL 529 NSCLC
# SK-MEL-28 melanoma = tested on: SK-MEL-28 melanoma
# CAKI-1 renal = tested on: CAKI-1 renal
# A498 renal = tested on: A498 renal
# SNB-19 CNS = tested on: SNB-19 CNS
# SK-OV-3 ovarian = tested on: SK-OV-3 ovarian
# SK-MEL-2 melanoma = tested on: SK-MEL-2 melanoma
# M19-MEL melanoma = tested on: M19-MEL melanoma
# RPMI-8226 leukemia = tested on: RPMI-8226 leukemia
compound,measurement,setting,value
CCOC(=O)c1[nH]c(CN(C)Cc2[nH]c(C(=O)OCC)c(C)c2C(=O)OCc2ccccc2)c(C(=O)OCc2ccccc2)c1C,TGI,UACC-257 melanoma,> 100 µM
same,TGI,DLD-1 colon,> 100 µM
same,TGI,SR leukemia,> 100 µM
same,TGI,NCI-H226 lung,32.7 µM
same,TGI,SN12C renal,34.5 µM
same,TGI,ACHN renal,> 100 µM
same,TGI,OVCAR-3 ovarian,28.3 µM
same,TGI,UACC-62 melanoma,85.3 µM
same,TGI,M14 melanoma,29.1 µM
same,TGI,SF-268 CNS,> 100 µM
same,TGI,TK-10 renal,43.8 µM
same,TGI,DMS 114 small cell lung,> 100 µM
same,TGI,786-0 renal,36.2 µM
same,TGI,NCI-H23 lung,42 µM
same,TGI,LOX IMVI melanoma,> 100 µM
same,TGI,KM20L2 colon,14.1 µM
same,TGI,K-562 leukemia,> 100 µM
same,TGI,IGROV1 ovarian,> 100 µM
same,TGI,SF-295 CNS,> 100 µM
same,TGI,EKVX NSCLC,42.5 µM
same,TGI,RXF-631 renal,43.4 µM
same,TGI,OVCAR-5 ovarian,44.8 µM
same,TGI,KM12 colon,54.9 µM
same,TGI,SNB-78 CNS,> 100 µM
same,TGI,HOP-62 NSCLC,89.7 µM
same,TGI,HL-60(TB) leukemia,> 100 µM
same,TGI,RXF 393 renal,22.3 µM
same,TGI,HCT-15 colon,> 100 µM
same,TGI,HOP-92 NSCLC,8.73 µM
same,TGI,NCI-H460 lung,62.2 µM
same,TGI,HCC-2998 colon,> 100 µM
same,TGI,SNB-75 CNS,19.3 µM
same,TGI,MOLT-4 leukemia,> 100 µM
same,TGI,OVCAR-8 ovarian,> 100 µM
same,TGI,OVCAR-4 ovarian,32.1 µM
same,TGI,SK-MEL-5 melanoma,22.2 µM
same,TGI,U251 CNS,34 µM
same,TGI,MALME-3M melanoma,> 100 µM
same,TGI,UO-31 renal,> 100 µM
same,TGI,CCRF-CEM leukemia,> 100 µM
same,TGI,SF-539 CNS,21.3 µM
same,TGI,HOP-18 NSCLC,> 100 µM
same,TGI,COLO 205 colon,> 100 µM
same,TGI,NCI-H522 lung,36.7 µM
same,TGI,DMS 273 small cell lung,35 µM
same,TGI,HT29 colon,8.01 µM
same,TGI,HCT-116 colon,38 µM
same,TGI,A549 NSCLC,98.2 µM
same,TGI,SW-620 colon,> 100 µM
same,TGI,LXFL 529 NSCLC,> 100 µM
same,TGI,SK-MEL-28 melanoma,> 100 µM
same,TGI,CAKI-1 renal,23.8 µM
same,TGI,A498 renal,34.9 µM
same,TGI,SNB-19 CNS,42.2 µM
O=C(O)/C(=C\c1ccccc1Cl)S(=O)(=O)c1ccccc1,TGI,UACC-257 melanoma,> 100 µM
same,TGI,DLD-1 colon,> 100 µM
same,TGI,SN12C renal,> 100 µM
same,TGI,ACHN renal,> 100 µM
same,TGI,SK-OV-3 ovarian,> 100 µM
same,TGI,UACC-62 melanoma,> 100 µM
same,TGI,M14 melanoma,> 100 µM
same,TGI,SF-268 CNS,> 100 µM
same,TGI,TK-10 renal,> 100 µM
same,TGI,DMS 114 small cell lung,> 100 µM
same,TGI,786-0 renal,> 100 µM
same,TGI,LOX IMVI melanoma,> 100 µM
same,TGI,KM20L2 colon,> 100 µM
same,TGI,K-562 leukemia,> 100 µM
same,TGI,IGROV1 ovarian,> 100 µM
same,TGI,SF-295 CNS,> 100 µM
same,TGI,RXF-631 renal,> 100 µM
same,TGI,OVCAR-5 ovarian,> 100 µM
same,TGI,KM12 colon,> 100 µM
same,TGI,SNB-78 CNS,> 100 µM
same,TGI,HOP-62 NSCLC,> 100 µM
same,TGI,SK-MEL-2 melanoma,> 100 µM
same,TGI,HL-60(TB) leukemia,> 100 µM
same,TGI,RXF 393 renal,> 100 µM
same,TGI,HCT-15 colon,> 100 µM
same,TGI,HOP-92 NSCLC,> 100 µM
same,TGI,M19-MEL melanoma,> 100 µM
same,TGI,NCI-H460 lung,> 100 µM
same,TGI,HCC-2998 colon,> 100 µM
same,TGI,SNB-75 CNS,> 100 µM
same,TGI,MOLT-4 leukemia,> 100 µM
same,TGI,OVCAR-8 ovarian,> 100 µM
same,TGI,OVCAR-4 ovarian,> 100 µM
same,TGI,RPMI-8226 leukemia,> 100 µM
same,TGI,SK-MEL-5 melanoma,> 100 µM
same,TGI,U251 CNS,> 100 µM
same,TGI,MALME-3M melanoma,> 100 µM
same,TGI,UO-31 renal,> 100 µM
same,TGI,CCRF-CEM leukemia,> 100 µM
same,TGI,SF-539 CNS,> 100 µM
same,TGI,HOP-18 NSCLC,> 100 µM
same,TGI,COLO 205 colon,> 100 µM
same,TGI,NCI-H522 lung,> 100 µM
same,TGI,DMS 273 small cell lung,> 100 µM
same,TGI,HT29 colon,> 100 µM
same,TGI,HCT-116 colon,> 100 µM
same,TGI,A549 NSCLC,> 100 µM
same,TGI,SW-620 colon,> 100 µM
same,TGI,LXFL 529 NSCLC,> 100 µM
same,TGI,CAKI-1 renal,> 100 µM
same,TGI,A498 renal,> 100 µM
same,TGI,SNB-19 CNS,> 100 µM
O=[N+]([O-])[O-].O=[N+]([O-])[O-].[Au].[Au].c1ccc([P-]c2ccccc2)cc1.c1ccc([P-]c2ccccc2)cc1,GI50,UACC-257 melanoma,26.3 µM
same,TGI,UACC-257 melanoma,62.7 µM
same,GI50,DLD-1 colon,47 µM
same,TGI,DLD-1 colon,> 100 µM
same,GI50,ACHN renal,17 µM
same,TGI,ACHN renal,33.9 µM
same,GI50,OVCAR-3 ovarian,26.4 µM
same,TGI,OVCAR-3 ovarian,55.4 µM
same,GI50,SK-OV-3 ovarian,> 100 µM
same,TGI,SK-OV-3 ovarian,> 100 µM
same,GI50,UACC-62 melanoma,30 µM
same,TGI,UACC-62 melanoma,65.3 µM
same,GI50,M14 melanoma,22.6 µM
same,TGI,M14 melanoma,52.9 µM
same,GI50,SF-268 CNS,65.1 µM
same,TGI,SF-268 CNS,> 100 µM
same,GI50,TK-10 renal,23.3 µM
same,TGI,TK-10 renal,53.6 µM
same,GI50,DMS 114 small cell lung,37.5 µM
same,TGI,DMS 114 small cell lung,> 100 µM
same,GI50,786-0 renal,19.2 µM
same,TGI,786-0 renal,58.7 µM
same,GI50,NCI-H23 lung,36 µM
same,TGI,NCI-H23 lung,> 100 µM
same,GI50,LOX IMVI melanoma,35.3 µM
same,TGI,LOX IMVI melanoma,> 100 µM
same,GI50,KM20L2 colon,36.4 µM
same,TGI,KM20L2 colon,> 100 µM
same,GI50,K-562 leukemia,23.6 µM
same,TGI,K-562 leukemia,> 100 µM
same,GI50,IGROV1 ovarian,46.2 µM
same,TGI,IGROV1 ovarian,> 100 µM
same,GI50,SF-295 CNS,> 100 µM
same,TGI,SF-295 CNS,> 100 µM
same,GI50,EKVX NSCLC,33.4 µM
same,TGI,EKVX NSCLC,63 µM
same,GI50,OVCAR-5 ovarian,> 100 µM
same,TGI,OVCAR-5 ovarian,> 100 µM
same,GI50,KM12 colon,46.3 µM
same,TGI,KM12 colon,> 100 µM
same,GI50,SNB-78 CNS,61 µM
same,TGI,SNB-78 CNS,> 100 µM
same,GI50,HOP-62 NSCLC,> 100 µM
same,TGI,HOP-62 NSCLC,> 100 µM
same,GI50,SK-MEL-2 melanoma,31.1 µM
same,TGI,SK-MEL-2 melanoma,58.1 µM
same,GI50,HL-60(TB) leukemia,12 µM
same,TGI,HL-60(TB) leukemia,> 100 µM
same,GI50,HCT-15 colon,27 µM
same,TGI,HCT-15 colon,> 100 µM
same,GI50,HOP-92 NSCLC,26.6 µM
same,TGI,HOP-92 NSCLC,51.5 µM
same,GI50,NCI-H460 lung,20.4 µM
same,TGI,NCI-H460 lung,> 100 µM
same,GI50,HCC-2998 colon,71.8 µM
same,TGI,HCC-2998 colon,> 100 µM
same,GI50,SNB-75 CNS,51.4 µM
same,TGI,SNB-75 CNS,> 100 µM
same,GI50,OVCAR-8 ovarian,35.3 µM
same,TGI,OVCAR-8 ovarian,> 100 µM
same,GI50,RPMI-8226 leukemia,14.3 µM
same,TGI,RPMI-8226 leukemia,> 100 µM
same,GI50,SK-MEL-5 melanoma,34.1 µM
same,TGI,SK-MEL-5 melanoma,88.8 µM
same,GI50,U251 CNS,36.6 µM
same,TGI,U251 CNS,> 100 µM
same,GI50,MALME-3M melanoma,19.8 µM
same,TGI,MALME-3M melanoma,47 µM
same,GI50,UO-31 renal,25.9 µM
same,TGI,UO-31 renal,47.5 µM
same,GI50,CCRF-CEM leukemia,18.8 µM
same,TGI,CCRF-CEM leukemia,> 100 µM
same,GI50,SF-539 CNS,43.9 µM
same,TGI,SF-539 CNS,77.7 µM
same,GI50,HOP-18 NSCLC,18.5 µM
same,TGI,HOP-18 NSCLC,37.6 µM
same,GI50,COLO 205 colon,28 µM
same,TGI,COLO 205 colon,> 100 µM
same,GI50,NCI-H522 lung,3.64 µM
same,TGI,NCI-H522 lung,46.3 µM
same,GI50,DMS 273 small cell lung,39.2 µM
same,TGI,DMS 273 small cell lung,> 100 µM
same,GI50,HT29 colon,71.3 µM
same,TGI,HT29 colon,> 100 µM
same,GI50,HCT-116 colon,44.2 µM
same,TGI,HCT-116 colon,> 100 µM
same,GI50,A549 NSCLC,84 µM
same,TGI,A549 NSCLC,> 100 µM
same,GI50,SW-620 colon,38.7 µM
same,TGI,SW-620 colon,> 100 µM
same,GI50,LXFL 529 NSCLC,14.2 µM
same,TGI,LXFL 529 NSCLC,32.7 µM
same,GI50,SK-MEL-28 melanoma,29.3 µM
same,TGI,SK-MEL-28 melanoma,75.6 µM
same,GI50,CAKI-1 renal,26.9 µM
same,TGI,CAKI-1 renal,52.7 µM
same,GI50,A498 renal,> 100 µM
same,TGI,A498 renal,> 100 µM
same,GI50,SNB-19 CNS,> 100 µM
same,TGI,SNB-19 CNS,> 100 µM
